{
  "source": "patent US20160128340A1",
  "about": "“Pest control formulation composed of Beauveria bassiana, Cold Pressed Neem Oil and Refined Pyrethrum Extract, and methods of making and using same” (priority 2014, published 2016)",
  "origin": "cited, not measured here",
  "data": [
    {"test_system": "Bemisia tabaci", "settings": "Bemisia tabaci population collected in a floriculture greenhouse", "units": {"resistance factor at LC50": "fold"}, "values": [
      {"smiles": "Cc1c(COC(=O)[C@@H]2[C@H](/C=C(\\Cl)C(F)(F)F)C2(C)C)cccc1-c1ccccc1", "note": "(racemic) [bifenthrin]", "resistance factor at LC50": 23},
      {"smiles": "O=[N+]([O-])NC1=NCCN1Cc1ccc(Cl)nc1", "note": "[imidacloprid]", "resistance factor at LC50": 730},
      {"smiles": "CCN(CC)c1nc(C)cc(OP(=S)(OC)OC)n1", "note": "[pirimiphos-methyl]", "resistance factor at LC50": 18},
      {"smiles": "CC1(C)C(C=C(Cl)Cl)C1C(=O)OC(C#N)c1cccc(Oc2ccccc2)c1", "note": "(stereo not drawn) [α-cypermethrin]", "resistance factor at LC50": 80}
    ]}
  ]
}
